Laboratory results: article PMC6271079, “Amino Acid Derivatives of Ligustrazine-Oleanolic Acid as New Cytotoxic Agents” (Molecules, 2014)

Legend:
MDCK cells [1] = experiment: Giemsa staining, MDCK morphology; format: cell-based, canine; conditions: 2 μM, 72 h, 200×
Procedure: (§1) HepG2 cells in logarithmic growth phase were cultured in 6-well plates for 24 h at 37 °C in a humidified atmosphere with 5% CO2. And then each group was treated with different concentrations of compound 6a for 72 h. The cell culture medium was discarded. And the cells were washed twice with PBS, kept in PBS/ethanol (1:1) for 2 min, fixated in ethanol for 10 min. After removing the ethanol, the cells were stained with Giemsa stain for 2 min and observed under inverted phase-contrast microscope at a magnification of 400×. MDCK cells in logarithmic growth phase were cultured in 6-well plates for 24 h at 37 °C in a humidified atmosphere with 5% CO2. The cells were treated with 2 μM of compound 6a and CDDP for 72 h. The same operation was experimented as described above, and the cells were observed under inverted phase-contrast microscope at a magnification of 200×.

MDCK cells [2] = experiment: MTT toxicity (nephrotoxicity) evaluation, MDCK; format: cell-based; conditions: 72 h, Madin-Darby canine kidney cells
Procedure: (§2) The cytotoxicity of these compounds was tested on five cells lines by the standard MTT assay. The human cancer cells lines (HepG2, HT-29, Hela, BGC-823) and MDCK cells were provided by the Chinese Academy of Medical Sciences Peking Union Medical College. The tumor cells were cultured in RPMI 1640 medium supplemented with 10% (v/v) fetal bovine serum and 1% (v/v) penicillin-streptomycin (Thermo Technologies, New York, NY, USA) at 37 °C in a humidified atmosphere with 5% CO2. The growing tumor cells at a density 3 × 10^3 cells/mL were exposed to various concentrations of the tested drugs and incubated in a 96-well microtiter plate for 72 h (37 °C, 5% CO2). After MTT solution (20 μL, 5 mg/mL) was added to each well, the plate was incubated for a further 4 h. Then the media was removed. Formazan crystals were dissolved with DMSO (150 μL). After mixing well, the absorbance was quantified at 490 nm with a BIORAD 550 spectrophotometer (Bio-rad Life Science Development Ltd., Beijing, China). Wells containing no drugs were used to be blanks. The IC50 values were defined as the concentration of compounds that produced a 50% reduction of surviving cells and calculated using the Logit-method. Tumor cell growth inhibitory rate was calculated in the following Equation (1): % inhibition = (1 − Sample group OD/Control group OD) × 100%(1)

Hela = experiment: MTT cytotoxicity assay, Hela; format: cell-based, human; conditions: 72 h, cervical cancer cells
Procedure: as §2

HT-29 = experiment: MTT cytotoxicity assay, HT-29; format: cell-based; conditions: human colorectal cancer cells
Procedure: as §2

BGC-823 = experiment: MTT cytotoxicity assay, BGC-823; format: cell-based; conditions: human gastric cancer cells
Procedure: as §2

HepG2 = experiment: MTT cytotoxicity assay, HepG2; format: cell-based; conditions: human hepatoma cells
Procedure: as §2

[3] = test system: HepG2, HT-29, Hela and BGC-823; experiment: MTT cytotoxicity, summary statements over the cell lines; format: cell-based, human; conditions: Homo sapiens, HepG2, HT-29, Hela and BGC-823, MTT; read-out: IC50, cytotoxicity on all four cancer cell lines
Procedure: as §2

HepG2 cells [4] = experiment: Giemsa staining, HepG2 morphology; format: cell-based, human; conditions: 1, 2 and 4 μM, 72 h, 400×
Procedure: as §1

[5] = logP by shake flask-ultraviolet spectrophotometry; format: physicochemical; conditions: n-caprylic alcohol-water (octanol/water); pH 6.8, n-caprylic alcohol-water, shake flask-UV; read-out: logP (octanol-water partition coefficient)
Excerpt: Lipophilicity (ClogP) is used in rational drug design as a key factor related to the cell transmembrane transport or other biological processes. ClogP values can either be calculated experimentally or predicted by means of commercially available programs. In this work, ClogP values of the TOA-amino acid derivatives were predicted using Sybyl-X 2.0 (Tripos, Certara Inc., St. Louis, MO, USA). […] To determine the octanol-water partition coefficient (logP), a shake flask-ultraviolet spectrophotometry method was used to determine the concentration of 6a and TOA in the water phase and organic phase at pH 6.8 with n-caprylic alcohol-water as the simulation system. […] However, the better activity connected with the increases of these amino acid conjugates’ solubility is worthy of further study.

HepG2 cells [6] = experiment: DAPI staining, HepG2 nuclear changes; format: cell-based, human; conditions: 1, 2 and 4 μM, 72 h, 400×
Procedure: HepG2 cells in logarithmic growth phase were allowed to grow in 6-well plates for 24 h at 37 °C in a humidified atmosphere with 5% CO2. And each group was treated with different concentrations of compound 6a for 72 h. Cell culture medium was discarded and the cells were washed twice with PBS. The cells were fixed with 4% paraformaldehyde (pH 7.4) for 15 min and then washed twice with PBS. With an excitation wavelength of 470 nm, 4',6-diamidino-2-phenylindole (DAPI, 600 nM, Molecular Probes/Invitrogen Life Technologies, Carlsbad, CA, USA) staining was then performed for 2 min and nuclear fragments were observed using inverted phase-contrast microscope at a magnification of 400×.

[7] = MTT cytotoxicity, summary statements over the cell lines; format: cell-based, human; conditions: human (HepG2, HT-29, Hela, BGC-823); dog (MDCK), HepG2, HT-29, Hela, BGC-823 and MDCK cells, four cancer cell lines and MDCK, MTT; read-out: IC50, cytotoxicity on both cancer and MDCK cells
Procedure: as §2

## [NH2][Pt]([NH2])([Cl])[Cl] [CDDP, cisplatin, reference compound]
MDCK cells [1]
  Morphological changes of MDCK cells (Giemsa staining): less density, larger volume, lighter nuclear staining and cellular atypia
MDCK cells [2]
  IC50: 3.69 µM
Hela
  IC50: 9.84 µM
HT-29; 72 h
  IC50: 6.11 µM
BGC-823; 72 h
  IC50: 6.82 µM
HepG2; 72 h
  IC50: 2.86 µM

## CNCC(=O)O[C@H]1CC[C@@]2(C)C(CC[C@]3(C)C2CC=C2C4CC(C)(C)CC[C@]4(C(=O)OCc4nc(C)c(C)nc4C)CC[C@]23C)C1(C)C (stereo partly drawn) [Compound 6i, 3β-L-Sarcosine ester olean-12-en-28-oic acid-3,5,6-trimethylpyrazin-2-methyl ester]
MDCK cells [2]; Canis lupus familiaris, MDCK
  IC50: 15.8 µM
Hela; Homo sapiens
  IC50: 12.6 µM
HT-29; HT-29, 72 h
  IC50: 16.9 µM
BGC-823; BGC-823, 72 h
  IC50: 16 µM
HepG2; HepG2, 72 h
  IC50: 10.2 µM
other
  melting point: 81.9 to 82.5 °C

## Cc1nc(C)c(COC(=O)[C@]23CCC(C)(C)CC2C2=CCC4[C@@]5(C)CC[C@H](OC(=O)[C@H](C)N)C(C)(C)C5CC[C@@]4(C)[C@]2(C)CC3)nc1C (stereo partly drawn) [Compound 6b, 3β-L-Alanine ester olean-12-en-28-oic acid-3,5,6-trimethylpyrazin-2-methyl ester]
MDCK cells [2]; Canis lupus familiaris, MDCK
  IC50: 5.12 µM
Hela; Homo sapiens
  IC50: 7.69 µM
HT-29; HT-29, 72 h
  IC50: 4.77 µM
BGC-823; BGC-823, 72 h
  IC50: 4.47 µM
HepG2; HepG2, 72 h
  IC50: 2.32 µM
other
  melting point: 89.7 to 92.1 °C
[3]
  IC50: < 8 µM

## Cc1nc(C)c(COC(=O)[C@]23CCC(C)(C)CC2C2=CCC4[C@@]5(C)CC[C@H](OC(=O)[C@@H](N)C(C)C)C(C)(C)C5CC[C@@]4(C)[C@]2(C)CC3)nc1C (stereo partly drawn) [Compound 6f, 3β-L-Valine ester olean-12-en-28-oic acid-3,5,6-trimethylpyrazin-2-methyl ester]
MDCK cells [2]; Canis lupus familiaris, MDCK
  IC50: 9.79 µM
Hela; Homo sapiens
  IC50: > 25 µM
HT-29; HT-29, 72 h
  IC50: 5.96 µM
BGC-823; BGC-823, 72 h
  IC50: 9.52 µM
HepG2; HepG2, 72 h
  IC50: 4.26 µM
other
  melting point: 89.5 to 91 °C

## Cc1nc(C)c(COC(=O)[C@]23CCC(C)(C)CC2C2=CCC4[C@@]5(C)CC[C@H](OC(=O)[C@@H](N)CC(C)C)C(C)(C)C5CC[C@@]4(C)[C@]2(C)CC3)nc1C (stereo partly drawn) [Compound 6d, 3β-L-Leucine ester olean-12-en-28-oic acid-3,5,6-trimethylpyrazin-2-methyl ester]
MDCK cells [2]; Canis lupus familiaris, MDCK
  IC50: > 25 µM
Hela; Homo sapiens
  IC50: > 25 µM
HT-29; HT-29, 72 h
  IC50: > 25 µM
BGC-823; BGC-823, 72 h
  IC50: > 25 µM
HepG2; HepG2, 72 h
  IC50: > 25 µM
other
  melting point: 89.6 to 91.6 °C

## Cc1nc(C)c(COC(=O)[C@]23CCC(C)(C)CC2C2=CCC4[C@@]5(C)CC[C@H](OC(=O)[C@@H]6CCCN6)C(C)(C)C5CC[C@@]4(C)[C@]2(C)CC3)nc1C (stereo partly drawn) [Compound 6c, 3β-L-Proline ester olean-12-en-28-oic acid-3,5,6-trimethylpyrazin-2-methyl ester]
MDCK cells [2]; Canis lupus familiaris, MDCK
  IC50: 5.03 µM
Hela; Homo sapiens
  IC50: 6.75 µM
HT-29; HT-29, 72 h
  IC50: 3.21 µM
BGC-823; BGC-823, 72 h
  IC50: 4.98 µM
HepG2; HepG2, 72 h
  IC50: 2.39 µM
other
  melting point: 89.6 to 91.3 °C
[3]
  IC50: < 8 µM

## Cc1nc(C)c(COC(=O)[C@]23CCC(C)(C)CC2C2=CCC4[C@@]5(C)CC[C@H](OC(=O)[C@@H]6CCC(=O)N6)C(C)(C)C5CC[C@@]4(C)[C@]2(C)CC3)nc1C (stereo partly drawn) [Compound 6j, 3β-L-Pyroglutamate ester olean-12-en-28-oic acid-3,5,6-trimethylpyrazin-2-methyl ester]
other
  melting point: 124.6 to 125.8 °C

## Cc1nc(C)c(COC(=O)[C@]23CCC(C)(C)CC2C2=CCC4[C@@]5(C)CC[C@H](OC(=O)CN)C(C)(C)C5CC[C@@]4(C)[C@]2(C)CC3)nc1C (stereo partly drawn) [Compound 6a, 3β-Glycine ester olean-12-en-28-oic acid-3,5,6-trimethylpyrazin-2-methyl ester]
MDCK cells [1]
  Morphological changes of MDCK cells (Giemsa staining): no significant morphological changes
MDCK cells [2]; Canis lupus familiaris, MDCK
  IC50: 4.88 µM
Hela; Homo sapiens
  IC50: 3.26 µM
HT-29; HT-29, 72 h
  IC50: 2.5 µM
BGC-823; BGC-823, 72 h
  IC50: 3.06 µM
HepG2 cells [4]
  Morphological changes of HepG2 cells (Giemsa staining): loss of intercellular contacts, lysis of nuclei, increased cell debris and membrane damage
HepG2; HepG2, 72 h
  IC50: 2 µM
[5]
  logP: 4.3
HepG2 cells [6]
  Nuclear changes of HepG2 cells (DAPI staining): condensed chromatin, nuclear fragmentation and weak fluorescence

## Cc1nc(C)c(COC(=O)[C@]23CCC(C)(C)CC2C2=CCC4[C@@]5(C)CC[C@H](OC(=O)[C@@H](N)CCCCN)C(C)(C)C5CC[C@@]4(C)[C@]2(C)CC3)nc1C (stereo partly drawn) [Compound 6g, 3β-L-Lysine ester olean-12-en-28-oic acid-3,5,6-trimethylpyrazin-2-methyl ester]
MDCK cells [2]; Canis lupus familiaris, MDCK
  IC50: 2.31 µM
Hela; Homo sapiens
  IC50: 2.38 µM
HT-29; HT-29, 72 h
  IC50: 2.35 µM
BGC-823; BGC-823, 72 h
  IC50: 2.48 µM
HepG2; HepG2, 72 h
  IC50: 2.27 µM
other
  melting point: 87.5 to 88.2 °C
[7]
  IC50 at 72 h: < 2.5 µM

## Cc1nc(C)c(COC(=O)[C@]23CCC(C)(C)CC2C2=CCC4[C@@]5(C)CC[C@H](OC(=O)[C@@H](N)Cc6c[nH]c7ccccc67)C(C)(C)C5CC[C@@]4(C)[C@]2(C)CC3)nc1C (stereo partly drawn) [Compound 6k, 3β-L-Tryptophan ester olean-12-en-28-oic acid-3,5,6-trimethylpyrazin-2-methyl ester]
MDCK cells [2]; Canis lupus familiaris, MDCK
  IC50: 10.8 µM
Hela; Homo sapiens
  IC50: > 25 µM
HT-29; HT-29, 72 h
  IC50: > 25 µM
BGC-823; BGC-823, 72 h
  IC50: 10 µM
HepG2; HepG2, 72 h
  IC50: 11.4 µM
other
  melting point: 206.9 to 207.7 °C

## Cc1nc(C)c(COC(=O)[C@]23CCC(C)(C)CC2C2=CCC4[C@@]5(C)CC[C@H](OC(=O)[C@@H](N)Cc6ccccc6)C(C)(C)C5CC[C@@]4(C)[C@]2(C)CC3)nc1C (stereo partly drawn) [Compound 6h, 3β-L-Phenylalanine ester olean-12-en-28-oic acid-3,5,6-trimethylpyrazin-2-methyl ester]
MDCK cells [2]; Canis lupus familiaris, MDCK
  IC50: 8.12 µM
Hela; Homo sapiens
  IC50: > 25 µM
HT-29; HT-29, 72 h
  IC50: 9.5 µM
BGC-823; BGC-823, 72 h
  IC50: > 25 µM
HepG2; HepG2, 72 h
  IC50: 8.22 µM
other
  melting point: 82.4 to 83.8 °C

## Cc1nc(C)c(COC(=O)[C@]23CCC(C)(C)CC2C2=CCC4[C@@]5(C)CC[C@H](OC(=O)[C@@H](N)CO)C(C)(C)C5CC[C@@]4(C)[C@]2(C)CC3)nc1C (stereo partly drawn) [Compound 6l, 3β-L-Serine ester olean-12-en-28-oic acid-3,5,6-trimethylpyrazin-2-methyl ester]
MDCK cells [2]; Canis lupus familiaris, MDCK
  IC50: 3.12 µM
Hela; Homo sapiens
  IC50: 5.22 µM
HT-29; HT-29, 72 h
  IC50: 4.83 µM
BGC-823; BGC-823, 72 h
  IC50: 4.9 µM
HepG2; HepG2, 72 h
  IC50: 4.78 µM
other
  melting point: 107.1 to 108.5 °C
[3]
  IC50: < 8 µM

## CC[C@H](C)[C@H](N)C(=O)O[C@H]1CC[C@@]2(C)C(CC[C@]3(C)C2CC=C2C4CC(C)(C)CC[C@]4(C(=O)OCc4nc(C)c(C)nc4C)CC[C@]23C)C1(C)C (stereo partly drawn) [Compound 6e, 3β-L-Isoleucine ester olean-12-en-28-oic acid-3,5,6-trimethylpyrazin-2-methyl ester]
MDCK cells [2]; Canis lupus familiaris, MDCK
  IC50: > 25 µM
Hela; Homo sapiens
  IC50: > 25 µM
HT-29; HT-29, 72 h
  IC50: 9.83 µM
BGC-823; BGC-823, 72 h
  IC50: > 25 µM
HepG2; HepG2, 72 h
  IC50: 5.97 µM
other
  melting point: 89.8 to 90.7 °C
